Consider 54 molecules from patent publication US9512144B2, “Imidazothiazole sufonamides as nematicides” (BAYER CROPSCIENCE AKTIENGESELLSCHAFT, priority 2013, dated 2016).

Each structure is given as a SMILES string.

The assay deals with Meloidogyne incognita. Description: Meloidogyne incognita test (MELGIN): sand, salad seeds, gall formation after 14 days. The settings on record: application rate 20 ppm, salad seedlings in sand. The format is in vivo. As to the method: Solvent: 125.0 parts by weight of acetone To produce a suitable preparation of active compound, 1 part by weight of active compound is mixed with the stated amount of solvent, and the concentrate is diluted with water to the desired concentration. Vessels are filled with sand, a solution of the active ingredient, a suspension containing eggs and larvae of the southern root-knot nematode (Meloidogyne incognita) and salad seeds. The salad seeds germinate and the seedlings grow. Galls develop in the roots. After 14 days the nematicidal activity is determined on the basis of the percentage of gall formation. 100% means that no galls were found; 0% means that the number of galls found on the roots of the treated plants was equal to that in untreated control plants.
Regarding `CCCOc1ccc(Cl)c(S(=O)(=O)NC(=O)c2cn3cc(C(F)(F)C(F)(F)F)sc3n2)c1` [Example I-1-238], the “nematicidal activity on the basis of the percentage of gall formation (100% = no galls)” value came to 100%.
The same measure for `Cc1ccc(C(C)(C)C)cc1S(=O)(=O)NC(=O)c1cn2cc(C(F)(F)C(F)(F)F)sc2n1` [Example I-1-233]: 100%; for `O=C(NS(=O)(=O)c1ccccc1-c1ccccc1)c1cn2cc(C(F)(F)C(F)(F)F)sc2n1` [Example I-1-235]: 100%.
`O=C(NS(=O)(=O)c1ccccc1OC(F)(F)F)c1cn2cc(C(F)(F)C(F)(F)F)sc2n1` [Example I-1-234]: the “nematicidal activity on the basis of the percentage of gall formation (100% = no galls)” value was 100%.
The same measure for `O=C(NS(=O)(=O)c1ccccc1Cl)c1cn2nc(C(F)(F)F)sc2n1` [Example I-1-202]: 90%.
With `O=C(NS(=O)(=O)c1ccc(Br)c(Cn2cccn2)c1)c1cn2cc(C(F)(F)C(F)(F)F)sc2n1` [Example I-1-293], the “nematicidal activity on the basis of the percentage of gall formation (100% = no galls)” value was determined as 100%.
Consider `CC(C)(C)c1cn2cc(C(=O)NS(=O)(=O)c3cc(Cl)ccc3Cl)nc2s1` [Example I-1-15], for which the “nematicidal activity on the basis of the percentage of gall formation (100% = no galls)” value worked out at 100%.
The same measure for `Cc1cc(S(=O)(=O)NC(=O)c2cn3cc(C(F)(F)F)sc3n2)c(C)cc1Br` [Example I-1-14]: 100%.
Turning to `O=C(NS(=O)(=O)c1cc(Br)ccc1Br)c1cn2cc(C(F)(F)F)sc2n1` [Example I-1-312], the “nematicidal activity on the basis of the percentage of gall formation (100% = no galls)” value is given as 100%.
Next, `COc1ccc(Cl)c(S(=O)(=O)NC(=O)c2cn3cc(Br)sc3n2)c1` [Example I-1-60]: 100%; `O=C(NS(=O)(=O)c1ccccc1Cl)c1nc2sc(C(F)(F)F)cn2c1I` [Example I-3-5]: 100%; `O=C(NS(=O)(=O)c1ccccc1Cl)c1nc2sc(C(F)(F)F)cn2c1Br` [Example I-3-1]: 100%.
For `Cc1ccc(Cn2cccn2)cc1S(=O)(=O)NC(=O)c1cn2cc(C(F)(F)C(F)(F)F)sc2n1` [Example I-1-295], the “nematicidal activity on the basis of the percentage of gall formation (100% = no galls)” value came to 90%.
Next, `Cc1ccc(Cn2cccn2)cc1S(=O)(=O)NC(=O)c1cn2cc(C(F)(F)F)sc2n1` [Example I-1-288]: 90%; `O=C(NS(=O)(=O)c1c(F)cccc1F)c1cn2cc(C(F)(F)F)sc2n1` [Example I-1-11]: 100%.
The same measure for `O=C(NS(=O)(=O)c1ccc(Br)c(Cn2cccn2)c1)c1cn2cc(C(F)(F)F)sc2n1` [Example I-1-275]: 90%.
Regarding `O=C(NS(=O)(=O)c1cccc(Cl)c1)c1cn2cc(Cl)sc2n1` [Example I-1-50], the “nematicidal activity on the basis of the percentage of gall formation (100% = no galls)” value is on record as 100%.
Next, `CC(C)(C)c1cn2cc(C(=O)NS(=O)(=O)c3c(Cl)cccc3Cl)nc2s1` [Example I-1-13]: 100%; `COc1ccc(Cl)c(S(=O)(=O)NC(=O)c2cn3cc(Cl)sc3n2)c1` [Example I-1-19]: 100%; `CSc1cn2cc(C(=O)NS(=O)(=O)c3c(Cl)cccc3Cl)nc2s1` [Example I-1-300]: 100%.
The same measure for `COc1ccc(Cl)c(S(=O)(=O)NC(=O)c2nc3sc(C(F)(F)F)cn3c2Cl)c1` [Example I-3-4]: 100%.
Turning to `Cc1ccc(C)c(S(=O)(=O)NC(=O)c2cn3c(C(F)(F)F)csc3n2)c1` [Example I-1-270], the “nematicidal activity on the basis of the percentage of gall formation (100% = no galls)” value came to 100%.
Next, `N#Cc1ccc(Cl)c(S(=O)(=O)NC(=O)c2cn3cc(C(F)(F)F)sc3n2)c1` [Example I-1-310]: 90%.
Next, `O=C(NS(=O)(=O)c1ccc(Cl)cc1)c1cn2cc(Cl)sc2n1` [Example I-1-51]: 100%; `Cc1ccc(OC(F)F)cc1S(=O)(=O)NC(=O)c1cn2cc(C(F)(F)F)sc2n1` [Example I-1-7]: 90%.
Consider `CSc1cn2cc(C(=O)NS(=O)(=O)c3ccccc3Cl)nc2s1` [Example I-1-298], for which the “nematicidal activity on the basis of the percentage of gall formation (100% = no galls)” value is given as 100%.
The same measure for `CSc1cn2cc(C(=O)NS(=O)(=O)c3cc(C(F)(F)F)ccc3Cl)nc2s1` [Example I-1-296]: 100%.
Turning to `O=C(NS(=O)(=O)c1ccccc1OC(F)(F)F)c1cn2cc(C(F)(F)F)sc2n1` [Example I-1-281], the “nematicidal activity on the basis of the percentage of gall formation (100% = no galls)” value was 90%.
The same measure for `O=C(NS(=O)(=O)c1cccc(Cl)c1Cl)c1cn2cc(C(F)(F)C(F)(F)F)sc2n1` [Example I-1-236]: 100%; for `CCc1ccc(CC)c(S(=O)(=O)NC(=O)c2cn3cc(C(F)(F)F)sc3n2)c1` [Example I-1-305]: 100%; for `O=C(NS(=O)(=O)c1ccccc1F)c1cn2cc(C(F)(F)F)sc2n1` [Example I-1-212]: 100%.
The same measure for `CC(=O)c1ccc(Cl)c(S(=O)(=O)NC(=O)c2cn3c(C)c(C(F)(F)F)sc3n2)c1` [Example I-1-302]: 100%; for `CCCOc1ccc(Cl)cc1S(=O)(=O)NC(=O)c1cn2cc(C(F)(F)F)sc2n1` [Example I-1-313]: 100%; for `O=C(NS(=O)(=O)c1cccc(Cl)c1)c1cn2cc(C(F)(F)C(F)(F)F)sc2n1` [Example I-1-143]: 90%.
Turning to `CC(C)(C)c1cn2cc(C(=O)NS(=O)(=O)c3ccccc3Cl)nc2s1` [Example I-1-16], the “nematicidal activity on the basis of the percentage of gall formation (100% = no galls)” value is given as 100%.
Regarding `CSc1cn2cc(C(=O)NS(=O)(=O)c3cc(Cl)ccc3Cl)nc2s1` [Example I-1-297], the “nematicidal activity on the basis of the percentage of gall formation (100% = no galls)” value amounted to 90%.
The same measure for `COc1ccc(Cl)c(S(=O)(=O)NC(=O)c2cn3cc(C(C)(C)C)sc3n2)c1` [Example I-1-23]: 100%; for `O=C(NS(=O)(=O)c1cc(C(F)(F)F)ccc1Cl)c1cn2cc(Cl)sc2n1` [Example I-1-21]: 100%; for `O=C(NS(=O)(=O)c1cc(Cl)ccc1Cl)c1cn2c(C(F)(F)F)csc2n1` [Example I-1-31]: 100%.
`O=C(NS(=O)(=O)c1c(Cl)cccc1Cl)c1cn2cc(Cl)sc2n1` [Example I-1-43]: the “nematicidal activity on the basis of the percentage of gall formation (100% = no galls)” value was 100%.
The same measure for `CC(=O)c1ccc(Cl)c(S(=O)(=O)NC(=O)c2cn3cc(C(F)(F)F)sc3n2)c1` [Example I-1-301]: 100%; for `CCc1ccc(Cl)cc1S(=O)(=O)NC(=O)c1cn2cc(C(F)(F)F)sc2n1` [Example I-1-309]: 100%.
Turning to `Cc1c(C(F)(F)F)sc2nc(C(=O)NS(=O)(=O)c3cccc(Cl)c3)cn12` [Example I-1-155], the “nematicidal activity on the basis of the percentage of gall formation (100% = no galls)” value is listed as 100%.
Next, `O=C(NS(=O)(=O)c1ccc(Cl)cc1)c1cn2cc(C(F)(F)C(F)(F)F)sc2n1` [Example I-1-144]: 90%.
Take `O=C(NS(=O)(=O)c1ccccc1Cl)c1nc2sc(C(F)(F)F)cn2c1Cl` [Example I-3-3]: the “nematicidal activity on the basis of the percentage of gall formation (100% = no galls)” value amounted to 100%.
For `Cc1cc(S(=O)(=O)NC(=O)c2cn3cc(Cl)sc3n2)c(C)cc1C#N` [Example I-1-45], the “nematicidal activity on the basis of the percentage of gall formation (100% = no galls)” value was 100%.
The same measure for `COc1ccc(Cl)c(S(=O)(=O)NC(=O)c2nc3sc(C(F)(F)F)cn3c2Br)c1` [Example I-3-2]: 100%; for `Cc1c(C(F)(F)F)sc2nc(C(=O)NS(=O)(=O)c3ccc(Cl)cc3)cn12` [Example I-1-156]: 90%; for `O=C(NS(=O)(=O)c1cc(Cl)ccc1Cl)c1cn2cc(C(F)(F)F)sc2n1` [Example I-1-6]: 100%.
Take `O=C(NS(=O)(=O)c1cc(Cl)ccc1Cl)c1cn2cc(C(F)(F)C(F)(F)F)sc2n1` [Example I-1-145]: the “nematicidal activity on the basis of the percentage of gall formation (100% = no galls)” value is 100%.
With `COc1ccc(Cl)c(S(=O)(=O)NC(=O)c2cn3cc(SC)sc3n2)c1` [Example I-1-299], the “nematicidal activity on the basis of the percentage of gall formation (100% = no galls)” value is listed as 90%.
Next, `Cc1ccc(Cl)cc1S(=O)(=O)NC(=O)c1cn2c(C)c(C(F)(F)F)sc2n1` [Example I-1-290]: 100%; `O=C(NS(=O)(=O)c1cc(Cl)ccc1Cl)c1cn2cc(Cl)sc2n1` [Example I-1-18]: 90%; `O=C(NS(=O)(=O)c1ccc(Cl)cc1Cl)c1cn2cc(C(F)(F)C(F)(F)F)sc2n1` [Example I-1-224]: 100%.
